The values below come from US20240287079A1, “6-AMINOPYRAZOLOPYRIMIDINE COMPOUND AND PHARMACEUTICAL USE THEREOF” (Japan Tobacco Inc., priority 2021, published 2024).

NLRP3 inflammasome, sequence (Q96P20 whole entry): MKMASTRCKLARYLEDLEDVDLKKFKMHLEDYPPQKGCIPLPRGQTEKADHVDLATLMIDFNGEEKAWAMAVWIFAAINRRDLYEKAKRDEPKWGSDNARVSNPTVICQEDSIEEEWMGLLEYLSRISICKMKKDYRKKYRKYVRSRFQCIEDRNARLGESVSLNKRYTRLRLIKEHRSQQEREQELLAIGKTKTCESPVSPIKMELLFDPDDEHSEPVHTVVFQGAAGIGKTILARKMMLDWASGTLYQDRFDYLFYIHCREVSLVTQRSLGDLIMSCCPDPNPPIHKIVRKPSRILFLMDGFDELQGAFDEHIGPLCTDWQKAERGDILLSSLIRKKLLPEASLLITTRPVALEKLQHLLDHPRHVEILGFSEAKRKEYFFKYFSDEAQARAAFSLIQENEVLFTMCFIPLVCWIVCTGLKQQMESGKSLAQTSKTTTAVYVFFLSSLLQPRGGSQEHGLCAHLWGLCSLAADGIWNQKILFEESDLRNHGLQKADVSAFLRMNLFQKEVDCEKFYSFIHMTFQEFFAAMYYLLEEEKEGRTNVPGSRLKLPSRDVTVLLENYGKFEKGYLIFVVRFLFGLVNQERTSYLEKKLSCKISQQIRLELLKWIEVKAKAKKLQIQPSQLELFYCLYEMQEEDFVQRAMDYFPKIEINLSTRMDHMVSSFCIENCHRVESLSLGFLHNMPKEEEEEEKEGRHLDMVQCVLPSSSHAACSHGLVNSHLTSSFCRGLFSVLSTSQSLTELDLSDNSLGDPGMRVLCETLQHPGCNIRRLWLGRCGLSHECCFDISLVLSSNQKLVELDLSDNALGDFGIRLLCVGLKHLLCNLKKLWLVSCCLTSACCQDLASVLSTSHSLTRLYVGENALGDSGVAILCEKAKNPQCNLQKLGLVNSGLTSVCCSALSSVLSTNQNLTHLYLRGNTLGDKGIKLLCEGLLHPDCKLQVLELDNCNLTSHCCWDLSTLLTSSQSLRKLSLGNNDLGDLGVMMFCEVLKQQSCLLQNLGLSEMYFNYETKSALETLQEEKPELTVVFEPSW

The first experiment addresses NLRP3 inflammasome (Homo sapiens (Human), UniProt Q96P20). Briefly: Evaluation of NLRP3 inflammasome inhibitory activity (inhibition of IL-1β production in LPS/Nigericin-stimulated THP1-Null cells). Type of experiment: cell-based. The conditions noted are these: IL-1β production in THP1-Null cells, PMA, LPS 1 μg/mL, Nigericin 7.5 μmol/L, AlphaLISA. In a few lines:
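THP1-Null cells primed with 1 μg/mL LPS, then treated with test compound; supernatant IL-1β quantified by AlphaLISA. Inhibition calculated with blank wells as 100% and control wells as 0%.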
Background: Bead proximity is the source of the signal in Alpha formats.
The term IC50 denotes the concentration at which inhibition is half-maximal. `Cc1cc(Br)cc(C)c1-n1cc2c(=O)[nH]c(NCC(F)(F)F)nc2n1` [Example 266] registered an IC50 of 0.014 µM.
Regarding `Cc1cc(Br)cc(C)c1-n1cc2c(=O)[nH]c(NCCF)nc2n1` [Example 267], 0.0065 µM corresponded to half-maximal inhibition (IC50).
In turn, `COCc1cc(Br)ccc1-n1cc2c(=O)[nH]c(N3CCOCC3)nc2n1` [Example 268] returned a concentration for half-maximal inhibition (IC50) of 0.034 µM.
`Cc1cc(C2CCC2)cc(C)c1-n1cc2c(=O)[nH]c(N3CCOCC3)nc2n1` [Example 270]: the IC50 is 0.083 µM.
`Nc1cc(C(F)(F)F)cc(Cl)c1-n1cc2c(=O)[nH]c(N3CCOCC3)nc2n1` [Example 271] displayed a 50% inhibitory concentration (IC50) of 0.02 µM.
`O=c1[nH]c(N2CCOCC2)nc2nn(-c3c(F)cc(Br)cc3C(F)(F)F)cc12` [Example 272]: the IC50 worked out at 0.022 µM.
`O=c1[nH]c(N2CCOCC2)nc2nn(-c3c(F)cc(C4CC4)cc3C(F)(F)F)cc12` [Example 273]: the IC50 stood at 0.013 µM.
`Cc1cc(Br)cc(C)c1-n1cc2c(=O)[nH]c(NC3COC3)nc2n1` [Example 274] had a half-inhibitory concentration (IC50) of 0.58 µM.
Still for that read-out and setting: then `Cc1cc(C2CC2)cc(C)c1-n1cc2c(=O)[nH]c(N3CCOC[C@H]3C)nc2n1` [Example 275], with 0.0085 µM; and `Cc1cc(C2(C(F)(F)F)CC2)cc(C)c1-n1cc2c(=O)[nH]c(N3CCOCC3)nc2n1` [Example 276], with 0.22 µM; and `Cc1cc(C(F)(F)F)cc(C)c1-n1cc2c(=O)[nH]c(N3CC4CC(C3)O4)nc2n1` [Example 277], with 0.016 µM.
`Cc1cc(Br)cc(C)c1-n1cc2c(=O)[nH]c(N3CC4CCC(C3)O4)nc2n1` [Example 278] gave an IC50 of 0.0079 µM.
Take `Cc1cc(Br)cc(C)c1-n1cc2c(=O)[nH]c(N3CCCC3)nc2n1` [Example 280]: half-maximal inhibition (IC50) was put at 0.0042 µM.
`Cc1cc(C(F)(F)F)cc(C)c1-n1cc2c(=O)[nH]c(N3CCCC3)nc2n1` [Example 281] had a half-inhibitory concentration (IC50) of 0.013 µM.
`Cc1c(Cl)ccc(-n2cc3c(=O)[nH]c(N4CCOCC4)nc3n2)c1C` [Example 282] gave a 50% inhibitory concentration (IC50) of 0.18 µM.
For `Cc1cc(Br)cc(C)c1-n1cc2c(=O)[nH]c(N3CCC(F)(F)C3)nc2n1` [Example 283], half-maximal inhibition (IC50) required 0.0071 µM.
In turn, `Cc1cc(Br)cc(C)c1-n1cc2c(=O)[nH]c(N3CCC[C@H]3C)nc2n1` [Example 284] showed an IC50 of 0.012 µM.
Same read-out and setting: then `Cc1cc(Br)cc(C)c1-n1cc2c(=O)[nH]c(N3CCC[C@@H]3C)nc2n1` [Example 285], with 0.027 µM; and `Cc1cc(C2CC2)cc(C)c1-n1cc2c(=O)[nH]c(N3CCCC3)nc2n1` [Example 286], with 0.0042 µM; and `Cc1cc(C2CC2)cc(Cl)c1-n1cc2c(=O)[nH]c(N3C[C@H]4C[C@@H]3CO4)nc2n1` [Example 287], with 0.0096 µM.
`Cc1cc(C2CC2)cc(Cl)c1-n1cc2c(=O)[nH]c(N3C[C@@H]4C[C@H]3CO4)nc2n1` [Example 288] came in with a 50% inhibitory concentration (IC50) of 0.01 µM.
`CC(=O)N1CCN(c2nc3nn(-c4c(C)cc(C5CC5)cc4C)cc3c(=O)[nH]2)[C@H](C)C1` [Example 290] gave an IC50 of 0.01 µM.
In the case of `Cc1cc(Br)cc(C)c1-n1cc2c(=O)[nH]c(N(C)C(C)C)nc2n1` [Example 291], the IC50 stood at 0.016 µM.
The compound `CCc1cc(C)c(-n2cc3c(=O)[nH]c(N4CCOCC4)nc3n2)c(C)c1` [Example 292] gave an IC50 of 0.028 µM.
In turn, `C=C(c1cc(C)c(-n2cc3c(=O)[nH]c(N4CCOCC4)nc3n2)c(C)c1)C(F)(F)F` [Example 293] came in with a half-maximal inhibitory concentration (IC50) of 0.29 µM.
Same read-out and setting: the value for `Cc1cc(C(F)(F)F)cc(C)c1-n1cc2c(=O)[nH]c(N3CC4CCC(C3)O4)nc2n1` [Example 295] was 0.02 µM; that for `Cc1cc(Br)cc(Cl)c1-n1cc2c(=O)[nH]c(N3CC4CC(C3)O4)nc2n1` [Example 296] was 0.014 µM; that for `Cc1cc(C2CC2)cc(Cl)c1-n1cc2c(=O)[nH]c(N3CC4CC(C3)O4)nc2n1` [Example 297] was 0.0099 µM.
Still for that read-out and setting: then `Cc1cc(OC(F)F)cc(C)c1-n1cc2c(=O)[nH]c(N3CCOCC3)nc2n1` [Example 298, 2-(4-(difluoromethoxy)-2,6-dimethylphenyl)-6-morpholino-2,5-dihydro-4H-pyrazolo[3,4-d]pyrimidin-4-one], with 0.027 µM; and `Cc1cc(C2CC2)cc(F)c1-n1cc2c(=O)[nH]c(N3C[C@H]4C[C@@H]3CO4)nc2n1` [Example 299], with 0.017 µM; and `Cc1cc(C2CC2)cc(F)c1-n1cc2c(=O)[nH]c(N3C[C@@H]4C[C@H]3CO4)nc2n1` [Example 300], with 0.015 µM.
Still for that read-out and setting: the value for `Cc1cc(C(C)C)cc(C)c1-n1cc2c(=O)[nH]c(N3CCOCC3)nc2n1` [Example 301] was 0.021 µM.
Turning to `CCOc1cc(Br)ccc1-n1cc2c(=O)[nH]c(N3CCOCC3)nc2n1` [Example 302], the half-inhibitory concentration (IC50) stood at 0.13 µM.
Still for that read-out and setting: then `CC(C)Oc1cc(Br)ccc1-n1cc2c(=O)[nH]c(N3CCOCC3)nc2n1` [Example 303], with 0.088 µM; and `COc1cc(Br)ccc1-n1cc2c(=O)[nH]c(N3CCOCC3)nc2n1` [Example 304], with 0.065 µM; and `O=c1[nH]c(N2CCOCC2)nc2nn(-c3ccc(Br)cc3OC3CCC3)cc12` [Example 305], with 0.048 µM.
`CC(C)(C)c1ccc(-n2cc3c(=O)[nH]c(N4CCOCC4)nc3n2)c(Br)c1` [Example 306] showed a 50% inhibitory concentration (IC50) of 0.085 µM.
The same measure, in the same setting: then `COc1ccc(-n2cc3c(=O)[nH]c(N4CCCC4)nc3n2)c(Br)c1` [Example 307], with 0.011 µM; and `Cc1cc(Br)cc(C)c1-n1cc2c(=O)[nH]c(N3CCCO3)nc2n1` [Example 308], with 0.17 µM.
Compound `O=c1[nH]c(N2C[C@H]3C[C@@H]2CO3)nc2nn(-c3ccc(Br)cc3C(O)C3CC3)cc12` (stereo partly shown) [Example 309] showed an IC50 of 0.11 µM.
`Cc1cc(Br)cc(C)c1-n1cc2c(=O)n(C)c(N3CC4CC(C3)O4)nc2n1` [Example 310]: the IC50 is 0.45 µM.
In turn, `Cn1c(N2CC3CC(C2)O3)nc2nn(-c3ccc(Br)cc3C(F)(F)F)cc2c1=O` [Example 311] showed a half-inhibitory concentration (IC50) of 0.32 µM.
`Cc1cc(C2CC2)cc(C)c1-n1cc2c(=O)n(C)c(N3CC4CC(C3)O4)nc2n1` [Example 312] returned an IC50 of 0.25 µM.
Compound `Cn1c(N2CC3CC(C2)O3)nc2nn(-c3ccc(C4CC4)cc3C(F)(F)F)cc2c1=O` [Example 313] showed an IC50 of 0.24 µM.
On to `COC(c1cc(Br)ccc1-n1cc2c(=O)[nH]c(N3C[C@H]4C[C@@H]3CO4)nc2n1)C1CC1` (stereo partly shown) [Example 314], for which the IC50 was found to be 1.1 µM.
Consider `COC(c1cc(C2CC2)ccc1-n1cc2c(=O)[nH]c(N3C[C@H]4C[C@@H]3CO4)nc2n1)C1CC1` (stereo partly shown) [Example 315], for which the IC50 was 0.67 µM.
The compound `CO[C@@H]1CCN(c2nc3nn(-c4c(C)cc(Br)cc4C)cc3c(=O)[nH]2)C1` [Example 316] yielded an IC50 of 0.0064 µM.
As to `CO[C@@H]1CCN(c2nc3nn(-c4c(C)cc(C5CC5)cc4C)cc3c(=O)[nH]2)C1` [Example 317], the midpoint of inhibition, the IC50, lay at 0.0052 µM.
Same read-out and setting: the value for `CO[C@H]1CCN(c2nc3nn(-c4c(C)cc(Br)cc4C)cc3c(=O)[nH]2)C1` [Example 318] was 0.032 µM; that for `CO[C@H]1CCN(c2nc3nn(-c4c(C)cc(C5CC5)cc4C)cc3c(=O)[nH]2)C1` [Example 319] was 0.024 µM.
Still for that read-out and setting: the value for `O=c1[nH]c(N2CCOCC2)nc2nn(-c3ccc(Cl)cc3CC3CC3)cc12` [Example 320] was 0.045 µM; that for `O=c1[nH]c(N2CCOCC2)nc2nn(-c3ccc(C4CC4)cc3CC3CC3)cc12` [Example 321] was 0.029 µM; that for `CC(C)Cc1ccccc1-n1cc2c(=O)[nH]c(N3CCOCC3)nc2n1` [Example 322] was 0.51 µM.
For `O=c1[nH]c(N2CCOCC2)nc2nn(-c3ccc(OC(F)F)cc3C(F)(F)F)cc12` [Example 325], inhibition was half-maximal at 0.031 µM (IC50).
`Cc1cc(C2CC2)cc(C)c1-n1cc2c(=O)[nH]c(N3CCCOCC3)nc2n1` [Example 326]: the IC50 amounted to 0.0075 µM.
On to `Cc1cc(N2CCC2)cc(C)c1-n1cc2c(=O)[nH]c(N3CCOCC3)nc2n1` [Example 327], for which the midpoint of inhibition, the IC50, lay at 0.08 µM.
`Cc1cc(C2CC2)cc(C)c1-n1cc2c(=O)[nH]c(N3CCC3)nc2n1` [Example 328] came in with an IC50 of 0.0058 µM.
Same read-out and setting: the value for `Cc1cc(C(F)F)cc(C)c1-n1cc2c(=O)[nH]c(N3CCOCC3)nc2n1` [Example 329] was 0.045 µM; that for `Cc1cc(C(F)F)cc(C)c1-n1cc2c(=O)[nH]c(N3C[C@H]4C[C@@H]3CO4)nc2n1` [Example 330] was 0.08 µM.
For `Cc1cc(C2CC2)cc(C)c1-n1cc2c(=O)[nH]c(N3CCCCO3)nc2n1` [Example 333], 0.049 µM corresponded to half-maximal inhibition (IC50).
The same measure, in the same setting: the value for `CONc1nc2nn(-c3c(C)cc(Br)cc3C)cc2c(=O)[nH]1` [Example 336] was 0.028 µM; that for `COCCN(C)c1nc2nn(-c3c(C)cc(Br)cc3C)cc2c(=O)[nH]1` [Example 337] was 0.047 µM; that for `Cc1cc(Br)cc(C)c1-n1cc2c(=O)[nH]c(N3CCCCCO3)nc2n1` [Example 338] was 0.025 µM.
For the compound `Cc1cc(Br)cc(C)c1-n1cc2c(=O)[nH]c(N3CCOCCO3)nc2n1` [Example 339], the concentration for half-maximal inhibition (IC50) amounted to 0.037 µM.
The compound `Cc1cc(Br)cc(C)c1-n1cc2c(=O)[nH]c(N3CCc4cccnc43)nc2n1` [Example 340] showed a half-maximal inhibitory concentration (IC50) of 0.47 µM.
The compound `Cc1ccc(C(F)(F)F)c(-n2cc3c(=O)[nH]c(N4CCOCC4)nc3n2)c1` [Example 341] had a half-inhibitory concentration (IC50) of 0.27 µM.
Take `Cc1nn(C(C)C)c(C)c1-n1cc2c(=O)[nH]c(N3CCCC3)nc2n1` [Example 343, 2-(1-isopropyl-3,5-dimethyl-1H-pyrazol-4-yl)-6-(pyrrolidin-1-yl)-2,5-dihydro-4H-pyrazolo[3,4-d]pyrimidin-4-one]: the IC50 was 0.75 µM.

Staying with this experiment, now noted: IL-1β production in THP1-Null cells; test compound 2.4 μM.
The term inhibition denotes the relative decrease from the control value, in per cent. A high value points to strong suppression. Regarding `COc1ccc(CNc2cc(C(F)(F)F)cc(Cl)c2-n2cc3c(=O)[nH]c(N4CCOCC4)nc3n2)c(OC)c1` [Example 269], 2.4 µM produced 25% inhibition.
Compound `Cc1cc(Br)cc(C)c1-n1cc2c(OC(F)F)nc(N3CCOCC3)nc2n1` [Example 332] returned an inhibition at 2.4 µM of 33%.
Still for that read-out and setting: the value for `Cc1nn(C)c(C)c1-n1cc2c(=O)[nH]c(N3CCCC3)nc2n1` [Example 342] was 45%.
